Data from patent publication US12331068B2, “Compositions and methods for inhibiting CD73” (Peloton Therapeutics, Inc., priority 2018, dated 2025).
Like-named read-outs stand apart in the source and are kept apart here.

Key:
Human CD73 = target: T1, Human CD73 (Homo sapiens, UniProt P21589); assay: CD73 Enzyme Assay (EnzChek PNP/MESG kinetic readout of AMP hydrolysis); assay type: biochemical
T1 construct: purchased R&D Systems; host or cells: CHO cells
T1 sequence (P21589 27-549): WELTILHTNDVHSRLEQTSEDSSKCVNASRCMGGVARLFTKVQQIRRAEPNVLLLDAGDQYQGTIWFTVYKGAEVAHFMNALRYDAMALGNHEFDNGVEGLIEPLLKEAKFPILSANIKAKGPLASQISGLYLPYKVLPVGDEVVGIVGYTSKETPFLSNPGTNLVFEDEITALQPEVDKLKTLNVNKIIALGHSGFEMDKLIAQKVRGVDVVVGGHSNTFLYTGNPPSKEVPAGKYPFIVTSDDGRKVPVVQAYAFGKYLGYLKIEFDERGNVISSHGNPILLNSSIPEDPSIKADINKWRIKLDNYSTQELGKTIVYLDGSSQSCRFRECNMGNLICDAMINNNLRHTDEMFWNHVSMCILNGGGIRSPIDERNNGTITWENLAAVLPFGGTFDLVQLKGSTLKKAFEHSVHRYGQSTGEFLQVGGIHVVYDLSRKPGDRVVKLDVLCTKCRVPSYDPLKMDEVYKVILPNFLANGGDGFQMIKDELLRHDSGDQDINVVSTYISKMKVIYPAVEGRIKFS
Outline: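 Compounds tested as 15-point, 3-fold dilution series (300 μM to 0.0002 μM) in DMSO. Kinetic absorbance at 360 nm read every minute for 10–20 min, initial velocity taken from the linear portion.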

[1] = target: T2, CD73 on U138 human neuroglioma cells (Homo sapiens, UniProt P21589); assay: CD73 Cell-Based Assay (inorganic phosphate from AMP, malachite green); details: AMP substrate, 2 hours at 37° C., read-out: CD73 Cell-Based assay IC50
T2 construct: U138 cells were obtained from ATCC and cultured in DMEM with 10% FBS; host or cells: U138 human neuroglioma cells
T2 sequence (P21589 27-549): T1 sequence (P21589 27-549)
Outline: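 U138 cells, seeded the day before at 2500 per well, were washed and given AMP substrate (200 μM in the added mixture, before dilution into the buffer) together with compound. After 2 h at 37 °C in 5% CO2, inorganic phosphate in the supernatant was measured with malachite green.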

[2] = 0.25 nM hCD73, 25 μM AMP, read-out: CD73 Enzyme Assay IC50

IC50 (Human CD73; [2]) [nM] | IC50 [1] [nM] | Structure (SMILES) | IC50 (Human CD73) [nM]
< 10 | < 10 | N#Cc1nc2c(ccn2[C@@H]2O[C@H](COP(=O)(O)CP(=O)(O)O)[C@@H](O)[C@H]2O)c(NC2CCCC2)c1Cl [Compound 211] | –
< 10 | < 10 | C[C@H](Nc1c(C#N)c(Cl)nc2c1ccn2[C@@H]1O[C@H](COP(=O)(O)CP(=O)(O)O)[C@@H](O)[C@H]1O)c1ccc(F)cn1 [Compound 212] | –
< 10 | < 10 | C[C@@H](Nc1c(C#N)c(Cl)nc2c1ccn2[C@@H]1O[C@H](COP(=O)(O)CP(=O)(O)O)[C@@H](O)[C@H]1O)c1ccc(C#N)cc1 [Compound 213] | –
< 10 | < 10 | N#Cc1c(Cl)nc2c(ccn2[C@@H]2O[C@H](COP(=O)(O)CP(=O)(O)O)[C@@H](O)[C@@H]2F)c1NC1CCCC1 [Compound 216] | –
< 10 | < 10 | N#Cc1nc2c(ccn2[C@@H]2O[C@H](CS(=O)(=O)CP(=O)(O)O)[C@@H](O)[C@H]2O)c(NC2CC3(CC3)C2)c1Cl [Compound 221] | –
< 10 | < 10 | C[C@@H](Nc1c(C#N)c(Cl)nc2c1ccn2[C@@H]1O[C@H](COP(=O)(O)CP(=O)(O)O)[C@@H](O)[C@H]1O)c1ccc(F)cn1 [Compound 222, (((((2R,3S,4R,5R)-5-(6-chloro-5-cyano-4-(((R)-1-(5-fluoropyridin-2-yl)ethyl)amino)-1H-pyrrolo[2,3-b]pyridin-1-yl)-3,4-dihydroxytetrahydrofuran-2-yl)methoxy)(hydroxy)phosphoryl)methyl)phosphonic acid] | –
< 10 | < 10 | C[C@H](Nc1c(C#N)c(Cl)nc2c1ccn2[C@@H]1O[C@H](COP(=O)(O)CP(=O)(O)O)[C@@H](O)[C@H]1O)c1ccc(C#N)cc1 [Compound 223] | –
< 10 | < 10 | N#Cc1c(Cl)nc2c(ccn2[C@@H]2O[C@H](COP(=O)(O)CP(=O)(O)O)[C@@H](O)[C@H]2O)c1NC1CCOC1 (stereo partly drawn) [Compound 224] | –
< 10 | < 10 | C[C@@H](Nc1c(C#N)c(Cl)nc2c1ncn2[C@@H]1O[C@H](COP(=O)(O)CP(=O)(O)O)[C@@H](O)[C@H]1O)c1ccc(F)cn1 [Compound 225] | –
< 10 | < 10 | C[C@@H](Nc1c(C#N)c(Cl)nc2c1ncn2[C@@H]1O[C@H](COP(=O)(O)CP(=O)(O)O)[C@@H](O)[C@H]1O)c1ccc(C#N)cc1 [Compound 226] | –
< 10 | < 10 | C[C@H](Nc1c(C#N)c(Cl)nc2c1ncn2[C@@H]1O[C@H](COP(=O)(O)CP(=O)(O)O)[C@@H](O)[C@H]1O)c1ccc(C#N)cc1 [Compound 227] | –
< 10 | < 10 | N#Cc1c(Cl)nc2c(ccn2[C@@H]2O[C@H](COP(=O)(O)CP(=O)(O)O)[C@@H](O)[C@@H]2F)c1NC1CC(F)(F)C1 [Compound 228] | –
< 10 | < 10 | C[C@@H](Nc1c(C#N)c(Cl)nc2c1ccn2[C@@H]1O[C@H](COP(=O)(O)CP(=O)(O)O)[C@@H](O)[C@@H]1F)c1ccc(F)cc1 [Compound 229] | –
< 10 | < 10 | C[C@H](Nc1c(C#N)c(Cl)nc2c1ccn2[C@@H]1O[C@H](COP(=O)(O)CP(=O)(O)O)[C@@H](O)[C@@H]1F)c1ccc(C#N)cc1 [Compound 230] | –
< 10 | < 10 | C[C@@H](Nc1c(C#N)c(Cl)nc2c1ccn2[C@@H]1O[C@H](COP(=O)(O)CP(=O)(O)O)[C@@H](O)[C@@H]1F)c1ccc(C#N)cc1 [Compound 239] | –

The remaining lines, values behind:

Structure (SMILES) | IC50 (Human CD73; [2]) [nM] | IC50 [1] [nM] | IC50 (Human CD73) [nM]
C[C@@H](Nc1c(C#N)c(Cl)nc2c1ccn2[C@@H]1O[C@H](CS(=O)(=O)CP(=O)(O)O)[C@@H](O)[C@H]1O)c1ccc(C#N)cc1 [Compound 178] | < 10 | < 10 | –
C[C@@H](Nc1c(C#N)c(Cl)nc2c1ccn2[C@@H]1O[C@H](CS(=O)(=O)CP(=O)(O)O)[C@@H](O)[C@H]1O)c1cccc(C#N)c1 [Compound 179] | < 10 | < 10 | –
C[C@H](Nc1c(C#N)c(Cl)nc2c1cnn2[C@@H]1O[C@H](CS(=O)(=O)CP(=O)(O)O)[C@@H](O)[C@H]1O)c1cccc(F)c1 [Compound 180] | < 10 | < 10 | –
C[C@@H](Nc1c(C#N)c(Cl)nc2c1cnn2[C@@H]1O[C@H](CS(=O)(=O)CP(=O)(O)O)[C@@H](O)[C@H]1O)c1cccc(F)c1 [Compound 182] | < 10 | < 10 | –
C[C@@H](Nc1c(C#N)c(Cl)nc2c1cnn2[C@@H]1O[C@H](CS(=O)(=O)CP(=O)(O)O)[C@@H](O)[C@H]1O)c1ccccc1F [Compound 183] | < 10 | < 10 | –
C[C@H](Nc1c(C#N)c(Cl)nc2c1cnn2[C@@H]1O[C@H](CS(=O)(=O)CP(=O)(O)O)[C@@H](O)[C@H]1O)c1ccc(F)cc1 [Compound 184, (((((2S,3S,4R,5R)-5-(6-chloro-5-cyano-4-(((S)-1-(4-fluorophenyl)ethyl)amino)-1H-pyrazolo[3,4-b]pyridin-1-yl)-3,4-dihydroxytetrahydrofuran-2-yl)methyl)sulfonyl)methyl)phosphonic acid] | < 10 | < 10 | –
C[C@H](Nc1c(C#N)c(Cl)nc2c1cnn2[C@@H]1O[C@H](CS(=O)(=O)CP(=O)(O)O)[C@@H](O)[C@H]1O)c1ccc(C#N)cc1 [Compound 185] | < 10 | < 10 | –
C[C@H](Nc1c(C#N)c(Cl)nc2c1ccn2[C@@H]1O[C@H](CS(=O)(=O)CP(=O)(O)O)[C@@H](O)[C@H]1O)c1cccc(C#N)c1 [Compound 190] | < 10 | < 10 | –
C[C@@H](Nc1c(C#N)c(Cl)nc2c1cnn2[C@@H]1O[C@H](CS(=O)(=O)CP(=O)(O)O)[C@@H](O)[C@H]1O)c1ccc(F)cc1 [Compound 191] | < 10 | < 10 | –
C[C@@H](Nc1c(C#N)c(Cl)nc2c1cnn2[C@@H]1O[C@H](CS(=O)(=O)CP(=O)(O)O)[C@@H](O)[C@H]1O)c1ccc(C#N)cc1 [Compound 192] | 10 to 100 | 10 to 100 | –
C[C@@H](Nc1c(C#N)c(Cl)nc2c1cnn2[C@@H]1O[C@H](CS(=O)(=O)CP(=O)(O)O)[C@@H](O)[C@H]1O)c1cccc(C#N)c1 [Compound 193] | < 10 | < 10 | –
C[C@H](Nc1c(C#N)c(Cl)nc2c1ccn2[C@@H]1O[C@H](CS(=O)(=O)CP(=O)(O)O)[C@@H](O)[C@H]1O)c1ccc(C#N)cc1 [Compound 198] | < 10 | < 10 | –
C[C@H](Nc1c(C#N)c(Cl)nc2c1cnn2[C@@H]1O[C@H](CS(=O)(=O)CP(=O)(O)O)[C@@H](O)[C@H]1O)c1ccccc1F [Compound 199] | < 10 | < 10 | –
C[C@H](Nc1c(C#N)c(Cl)nc2c1cnn2[C@@H]1O[C@H](CS(=O)(=O)CP(=O)(O)O)[C@@H](O)[C@H]1O)c1cccc(C#N)c1 [Compound 200] | < 10 | < 10 | –
N#Cc1nc2c(ccn2[C@@H]2O[C@H](COP(=O)(O)CP(=O)(O)O)[C@@H](O)[C@H]2O)c(NC2CC3(CC3)C2)c1Cl [Compound 206] | < 10 | < 10 | –
CC(C)Nc1c(C#N)c(Cl)nc2c1ccn2[C@@H]1O[C@H](COP(=O)(O)CP(=O)(O)O)[C@@H](O)[C@H]1O [Compound 207] | < 10 | < 10 | –
C[C@@H](Nc1c(C#N)c(Cl)nc2c1ncn2[C@@H]1O[C@H](COP(=O)(O)CP(=O)(O)O)[C@@H](O)[C@H]1O)c1ccccc1F [Compound 208, (((((2R,3S,4R,5R)-5-(5-chloro-6-cyano-7-(((R)-1-(2-fluorophenyl)ethyl)amino)-3H-imidazo[4,5-b]pyridin-3-yl)-3,4-dihydroxytetrahydrofuran-2-yl)methoxy)(hydroxy)phosphoryl)methyl)phosphonic acid] | < 10 | < 10 | –
N#Cc1c(Cl)nc2c(ncn2[C@@H]2O[C@H](COP(=O)(O)CP(=O)(O)O)[C@@H](O)[C@H]2O)c1NC1CCCC1 [Compound 209] | < 10 | < 10 | –
N#Cc1nc2c(ccn2[C@@H]2O[C@H](CS(=O)(=O)CP(=O)(O)O)[C@@H](O)[C@H]2O)c(NC2CCCC2)c1Cl [Compound 210] | < 10 | < 10 | –
C[C@@H](Nc1c(C#N)c(Cl)nc2c1ncn2[C@@H]1O[C@H](COP(=O)(O)CP(=O)(O)O)[C@@H](O)[C@H]1O)c1ccc(F)cc1 [Compound 214] | – | < 10 | < 10
C[C@H](Nc1c(C#N)c(Cl)nc2c1ncn2[C@@H]1O[C@H](COP(=O)(O)CP(=O)(O)O)[C@@H](O)[C@H]1O)c1ccc(F)cc1 [Compound 215, (((((2R,3S,4R,5R)-5-(5-chloro-6-cyano-7-(((S)-1-(4-fluorophenyl)ethyl)amino)-3H-imidazo[4,5-b]pyridin-3-yl)-3,4-dihydroxytetrahydrofuran-2-yl)methoxy)(hydroxy)phosphoryl)methyl)phosphonic acid] | – | < 10 | < 10
